For one assay, the system named is zebrafish embryos. The format is in vivo. Here is the method: According to one example of the whole animal-based screening methods of the invention, 1-2 hour old zebrafish embryos are arrayed in the wells of 96-well plates, three embryos per well. A chemical library, which is comprised of tens of thousands of diverse small molecules, is then pin-transferred into the wells at a final concentration of ˜2 to 10 uM. Embryos are observed over the course of next 24-48 hours and scored under a dissecting microscope for phenotype consistent with loss of BMP signaling (dorsalized embryos, FIG. 1) or with the loss of nodal signaling (cyclopia, FIG. 2).
Small molecule screening in zebrafish was performed as previously described (Peterson et al., Nat. Biotechnol. 22:595-599, 2004) with several modifications. Pairs of wild-type zebrafish were mated, and newly-fertilized eggs were arrayed in triplicate in 96-well plates containing E3 buffer. At 4 hours post fertilization (hpf), compounds were added to wells at 5-10 μM. Embryos were incubated at 28.5° C., and gross morphology of embryos was examined at 12, 24, and 48 hpf for dorsalization or ventralization of embryonic axis, as previously described (Mullins et al., Development 123:81-93, 1996). In total, 7,570 compounds were screened, including synthetic screening compounds (Chembridge Corporation, 5,580 small molecules) and known bioactive compounds (Microsource Discovery Systems, 1,840 small molecules and Sigma-Aldrich, 150 small molecules). For follow up studies, Compound C/Dorsomorphin and Ara-A (adenine 9-β-D-arabinofurano-side) were purchased from Sigma (St. Louis, Mo.), and C75 was purchased from EMD Biosciences (San Diego, Calif.).

The subject of assay [1] is BMP signaling pathway (activation of SMAD1/5/8 by BMP4). Put plainly: Cellular ELISA of BMP4-mediated SMAD1/5/8 activation. The format is cell-based. As for the experimental part:
In one example, the cell-based assay of the invention is an enzyme linked immunosorbent assay (ELISA) in which activation of SMAD proteins (SMAD2 or SMAD1/5/8) is measured. […] As discussed above, SMAD proteins are phosphorylated by heteromeric complexes of type I and type II BMP or TGF-β serine-threonine kinase receptors when engaged by ligands. The principal effects of these ligands are generally attributable to gene transcription from the activation of specific SMADs. Phosphorylated SMADs can be detected in whole cell extracts using commercially available anti-phospho-protein antibodies with high specificity by Western blotting (Yu et al., J. Biol. Chem. 280:24443-24450, 2005).
In an improved method provided by the invention, phosphorylated SMADs are detected in whole cells with high sensitivity and specificity by immobilizing and rendering the phospho-SMAD antigens accessible to antibody. Traditional fixation with 1% to 8% paraformaldehyde solution followed by permeabilization with methanol, or a solution of dilute detergent such as Triton-X100, yields unacceptable results, with the signal being only 1.2 to 1.3 times the background, if it is detected at all (while Western blot these signal-to-noise ratios would be 10 to 20). […]
A general note: An ELISA detects its analyte on a solid surface through an enzyme-linked reagent.

For assay [2], the system named is BMP-mediated SMAD1/5/8 phosphorylation. In words: Immunoblot of BMP-induced SMAD1/5/8 phosphorylation in PASMCs. The format is cell-based, murine. The conditions noted are these: for IC50: Mus musculus, PASMC. As for the experimental part:
(§1) Wild-type and BMPR-II-deficient PASMC were isolated as previously described (Yu et al., J. Biol. Chem. 280:24443-24450, 2005), and cultured in RPMI medium (Invitrogen) supplemented with 10% FBS. C2C12 cells (American Type Culture Collection, Manassas, Va.) were cultured in DMEM supplemented with glutamine and 10% FBS. HepG2 cells and Hep3B cells (ATCC) were cultured in Minimal Essential Alpha Medium with L-glutamine (α-MEM, Invitrogen) containing 10% FBS. For studies of SMAD activation in vitro, PASMC were incubated in 0.5% FCS RPMI for 24 hours, followed by preincubation with drug compounds, noggin, or vehicle for 30 minutes, followed the addition of recombinant BMPs 2, 4, 6, or 7, or TGF-β1 or Activin A (R&D Systems, Minneapolis, Minn.) for 30 minutes.
(§2) Cell extracts or tissues were mechanically homogenized in SDS-lysis buffer (62.5 mM Tris-HCl (pH 6.8), 2% SDS, 10% glycerol, 50 mM DTT, 0.01% bromophenol blue); separated by SDS-PAGE; immunoblotted with anti-phospho-SMAD1/5/8, anti-phospho-SMAD2 (Cell Signaling, Beverly, Mass.), or anti-α-tubulin (Upstate/Millipore, Billerica, Mass.) Abs; and visualized using ECL Plus (GE Healthcare, Piscataway, N.J.). Levels of immunoreactive proteins were quantitated by ImageQuant software on a Storm phosphorimager (GE Healthcare).
The statistical significance of compared measurements was measured using the student's two-tailed T-test or one-way ANOVA with Bonferroni correction. Hill plot analysis of Compound C/Dorsomorphin inhibition of SMAD1/5/8 phosphorylation was performed using GraFit software (Erithacus Software, Surrey, England).

For assay [3], the system named is Activin A-mediated activation of SMAD2. Put plainly: Activin A-mediated SMAD2 phosphorylation in PASMCs. As to conditions: Activin A 80 ng/ml. The format is cell-based, murine. As for the experimental part: as §1, §2
Setting [4] is: 10 μM, continuous exposure from 8 hpf, scored at 48 hpf.

Entries after “also recorded” stand apart in the source; their conditions may differ. Where two headings read alike, the source gives them in different places.

Consider one compound from US20100093760A1, “METHODS FOR IDENTIFYING COMPOUNDS THAT MODULATE CELL SIGNALING AND METHODS EMPLOYING SUCH COMPOUNDS” (The General Hospital Corporation, priority 2006, published 2010).

Compound `c1cc(-c2cnn3cc(-c4ccc(OCCN5CCCCC5)cc4)cnc23)ccn1` [Compound C/Dorsomorphin] returned a Moderate % in the assay with zebrafish embryos (setting [4]) of 0%. This compound also yielded a Normal % with zebrafish embryos (setting [4]) of 15%. Besides, the Severe % in the assay with zebrafish embryos (10 μM, interval exposure 2-4 hpf, scored at 48 hpf) amounted to 0%. For the same compound, the “Moderate dorsalization, number of embryos” value in the assay on zebrafish embryos (10 μM, interval exposure 4-8 hpf, scored at 48 hpf) amounted to 8. Besides, the “Moderate-Severe, number of embryos” value with zebrafish embryos (DM 2 μM from 3 hpf, scored at 48 hpf) is 0. In addition, in the assay with zebrafish embryos (≧5 μM at ≦8 hpf), the dorsalization phenotype result is “phenocopied with high penetrance the spectrum of dorsalization defects”. Further, in assay [1] (FIG. 4), the “Preference for BMP-mediated SMAD1/5/8 over TGF-β-mediated SMAD2 phosphorylation” value was “potently and preferentially inhibited; also recorded: preferentially inhibits”. Besides, the IC50 in assay [1] (FIG. 4, read-out: IC50, inhibition of activation of the BMP signaling pathway (SMAD1/5/8 by BMP4)) was less than 200 nM; in assay [2] (FIG. 6, read-out: IC50, activation of SMADs 1, 5, and 8 by BMP4), 500 nM; in assay [2] (PASMCs, Hill plot, 0.1-50 μM, read-out: functional IC50, BMP4-stimulated SMAD1/5/8 phosphorylation) it was 470 nM. For the same compound, in assay [2] (PASMCs, 4 μM), the “level of phosphorylated SMAD1/5/8 in cells not treated with BMP” value was “below basal levels”. The “effect on activation of SMAD1/5/8 by BMPs 2, 4, 6, and 7” value in assay [2] (PASMCs, 4 μM, BMPs 10 ng/ml, 30 minutes) is on record as “blocking; also recorded: inhibited”. Moreover, in assay [2] (PASMCs, BMP4 20 ng/ml, 0.2-40 μM pretreatment 30 minutes), the “effect on BMP4-mediated SMAD1/5/8 phosphorylation” value is given as “inhibited activation of SMADs 1/5/8 dose dependently; also recorded: dose-dependent inhibition”. Moreover, the “effect on Activin A-mediated activation of SMAD2” value in assay [3] is listed as “did not inhibit; also recorded: only modestly at concentrations ≧10 μM”.
